Measurements taken from patent publication EP4803513A1, “SUBSTITUTED QUINAZOLINE COMPOUND, PREPARATION METHOD THEREFOR, PHARMACEUTICAL COMBINATION THEREOF, AND USE THEREOF” (Hongyun Biotech Co., Ltd., priority 2023, dated 2025).

What follows are molecules tested on BRK-BaF3 cells (assay: Cell antiproliferative activity assay (CCK-8), BRK-BaF3). Details: 72 h, CCK-8, 3 days incubation.
Type: cell-based
Experimental: (§1) The activity of compounds against BRK kinase can be evaluated by their inhibition of the growth of the BRK kinase-stably transfected BaF3 cell line (BRK-BaF3) and wild-type BaF3 cells (WT-BaF3). […] The larger the ratio of the half-maximal growth inhibitory concentration (IC50) of a compound between WT-BaF3 and BRK-BaF3 cells, the better the selectivity of the compound.
(§2) BRK-BaF3, WT-BaF3, WEHI cell line, and breast cancer cell line T47D were cultured using RPMI 1640 Basal medium or DMEM (Dulbecco's Modified Eagle Medium) (Shanghai Peiyuan Biotechnology, L220KJ), supplemented with 10% FBS (Gibco, REF 10099-141C) and 1% P/S (Shanghai Peiyuan Biotechnology, S110JV), in an incubator (Thermo 3020) at 37°C with 5% CO2. Cell viability was above 95%. Cells were passaged at a 3:1 ratio every 3-4 days. For WT-BaF3 cells, WEHI cells were first cultured, and their culture supernatant was filtered through a 0.22 µm filter. This supernatant was added at 10% to the regular culture medium to supplement IL-3 required for WT-BaF3 cell proliferation, which served as the culture medium for WT-BaF3. For testing, cells were first collected and counted, then prepared into a cell suspension at 100,000 cells/mL and plated at 100 µL per well. Drug concentrations started from 10 µM and were serially diluted 3:1. After incubation for 3 days, 20 µL of CCK-8 detection reagent (Targetmol C005) was added to each well. After incubation for 2-4 hours, OD450 was measured using a microplate reader (Varioskan LUX, Thermo Scientific). After subtracting the blank background, the curve was fitted and the IC50 was calculated using XLfit software.

Row | Structure (SMILES) | IC50
1 | Cc1cc2cn[nH]c2cc1-c1cc(C(C)C)c2nc(Nc3cn(CCO)nc3C)ncc2c1 [I-185] | 20 to 100 nM
2 | Cc1nn(CCO)cc1Nc1ncc2cc(-c3c[nH]c4ncccc34)cc(C(C)C)c2n1 [I-186] | 20 to 100 nM
3 | Cc1nn(C)cc1Nc1ncc2cc(-c3cc[nH]c(=O)c3)cc(C(C)C)c2n1 [III-1] | 20 to 100 nM
4 | COc1nn(C)cc1Nc1ncc2cc(-c3cc(=O)[nH]cc3C)cc(C(C)C)c2n1 [III-6] | 20 to 100 nM
5 | Cc1c[nH]c(=O)cc1-c1cc(C(C)C)c2nc(Nc3cn(C4CCN(C5COC5)CC4)nc3C)ncc2c1 [III-18] | 20 to 100 nM
6 | Cc1c[nH]c(=O)cc1-c1cc(C(C)C)c2nc(Nc3cn([C@@H]4C[C@H]5CC[C@@H](C4)N5C)nc3C)ncc2c1 [III-25] | 20 to 100 nM
7 | Cc1c[nH]c(=O)cc1-c1cc(C(C)C)c2nc(Nc3cn(-c4cncnc4)nc3C)ncc2c1 [III-34] | 20 to 100 nM
8 | Cc1c[nH]c(=O)cc1-c1cc(C(C)C)c2nc(Nc3cn(C4CCCN(C)CC4)nc3C)ncc2c1 (centres unmarked) [III-35] | ≤ 20 nM
9 | Cc1c[nH]c(=O)cc1-c1cc(C(C)C)c2nc(Nc3cnn(C4CCCN(C)CC4)c3C)ncc2c1 (centres unmarked) [III-36] | ≤ 20 nM
10 | Cc1c[nH]c(=O)cc1-c1cc(C(C)C)c2nc(Nc3cn(C4CCN(C)C4)nc3C)ncc2c1 (centres unmarked) [III-38] | ≤ 20 nM
11 | Cc1c[nH]c(=O)cc1-c1cc(C(C)C)c2nc(Nc3cn(C4CCN(C(C)C)C4)nc3C)ncc2c1 (centres unmarked) [III-39] | ≤ 20 nM
12 | Cc1c[nH]c(=O)cc1-c1cc(C(C)C)c2nc(Nc3cn(C4COC4)nc3C)ncc2c1 [III-40] | ≤ 20 nM
13 | COCCn1cc(Nc2ncc3cc(-c4cc(=O)[nH]cc4C)cc(C(C)C)c3n2)c(C)n1 [III-42] | ≤ 20 nM
14 | COCCn1ncc(Nc2ncc3cc(-c4cc(=O)[nH]cc4C)cc(C(C)C)c3n2)c1C [III-43] | ≤ 20 nM
15 | COCCOCCn1cc(Nc2ncc3cc(-c4cc(=O)[nH]cc4C)cc(C(C)C)c3n2)c(C)n1 [III-44] | 20 to 100 nM
16 | COC[C@@H](C)n1cc(Nc2ncc3cc(-c4cc(=O)[nH]cc4C)cc(C(C)C)c3n2)c(C)n1 [III-45] | ≤ 20 nM
17 | COC[C@@H](C)n1ncc(Nc2ncc3cc(-c4cc(=O)[nH]cc4C)cc(C(C)C)c3n2)c1C [III-46] | ≤ 20 nM
18 | Cc1c[nH]c(=O)cc1-c1cc(C(C)C)c2nc(Nc3cn([C@@H](C)C(=O)N(C)C)nc3C)ncc2c1 [III-48] | ≤ 20 nM
19 | Cc1c[nH]c(=O)cc1-c1cc(C(C)C)c2nc(Nc3cnn([C@@H](C)C(=O)N(C)C)c3C)ncc2c1 [III-49] | 20 to 100 nM
20 | CCN(C)CCn1cc(Nc2ncc3cc(-c4cc(=O)[nH]cc4C)cc(C(C)C)c3n2)c(C)n1 [III-51] | ≤ 20 nM
21 | CCN(C)CCn1ncc(Nc2ncc3cc(-c4cc(=O)[nH]cc4C)cc(C(C)C)c3n2)c1C [III-52] | ≤ 20 nM
22 | COCCN(C)CCn1cc(Nc2ncc3cc(-c4cc(=O)[nH]cc4C)cc(C(C)C)c3n2)c(C)n1 [III-54] | ≤ 20 nM
23 | COCCN(C)CCn1ncc(Nc2ncc3cc(-c4cc(=O)[nH]cc4C)cc(C(C)C)c3n2)c1C [III-55] | ≤ 20 nM
24 | Cc1c[nH]c(=O)cc1-c1cc(C(C)C)c2nc(Nc3cn(CCN(C)CC(C)(C)O)nc3C)ncc2c1 [III-56] | ≤ 20 nM

Row | Structure (SMILES) | IC50
25 | Cc1c[nH]c(=O)cc1-c1cc(C(C)C)c2nc(Nc3cnn(CCN(C)CC(C)(C)O)c3C)ncc2c1 [III-57] | ≤ 20 nM
26 | Cc1c[nH]c(=O)cc1-c1cc(C(C)C)c2nc(Nc3cn(CCN4CCOC[C@@H]4C)nc3C)ncc2c1 [III-59] | ≤ 20 nM
27 | Cc1c[nH]c(=O)cc1-c1cc(C(C)C)c2nc(Nc3cnn(CCN4CCOC[C@@H]4C)c3C)ncc2c1 [III-60] | ≤ 20 nM
28 | Cc1c[nH]c(=O)cc1-c1cc(C(C)C)c2nc(Nc3cn(CCN4CCOC[C@H]4C)nc3C)ncc2c1 [III-61] | 20 to 100 nM
29 | Cc1c[nH]c(=O)cc1-c1cc(C(C)C)c2nc(Nc3cnn(CCN4CCOC[C@H]4C)c3C)ncc2c1 [III-62] | ≤ 20 nM
30 | Cc1c[nH]c(=O)cc1-c1cc(C(C)C)c2nc(Nc3cn(CCN4CCCC4)nc3C)ncc2c1 [III-64] | ≤ 20 nM
31 | Cc1c[nH]c(=O)cc1-c1cc(C(C)C)c2nc(Nc3cnn(CCN4CCCC4)c3C)ncc2c1 [III-65] | ≤ 20 nM
32 | Cc1c[nH]c(=O)cc1-c1cc(C(C)C)c2nc(Nc3cn(CC(=O)NCCF)nc3C)ncc2c1 [III-70] | 20 to 100 nM
33 | Cc1c[nH]c(=O)cc1-c1cc(C(C)C)c2nc(Nc3cn(CC(=O)NCC(F)F)nc3C)ncc2c1 [III-71] | 20 to 100 nM
34 | Cc1c[nH]c(=O)cc1-c1cc(C(C)C)c2nc(Nc3cn(CC(=O)NC4CCC4)nc3C)ncc2c1 [III-72] | 20 to 100 nM
35 | Cc1c[nH]c(=O)cc1-c1cc(C(C)C)c2nc(Nc3cn(CC(=O)NC4CC4)nc3C)ncc2c1 [III-73] | 20 to 100 nM
36 | Cc1c[nH]c(=O)cc1-c1cc(C(C)C)c2nc(Nc3cn(CC(=O)N(C)C(C)C)nc3C)ncc2c1 [III-74] | 20 to 100 nM
37 | C#CCN(C)C(=O)Cn1cc(Nc2ncc3cc(-c4cc(=O)[nH]cc4C)cc(C(C)C)c3n2)c(C)n1 [III-76] | 20 to 100 nM
38 | Cc1c[nH]c(=O)cc1-c1cc(C2CC2)c2nc(Nc3cn(C)nc3C)ncc2c1 [III-80] | ≤ 20 nM
39 | Cc1c[nH]c(=O)cc1-c1cc(C2CC2)c2nc(Nc3cnn(C)c3C)ncc2c1 [III-81] | ≤ 20 nM
40 | Cc1c[nH]c(=O)cc1-c1cc(C2CC2)c2nc(Nc3cn(C4COC4)nc3C)ncc2c1 [III-82] | ≤ 20 nM
41 | CCc1cc(-c2cc(=O)[nH]cc2C)cc2cnc(Nc3cn(C)nc3C)nc12 [III-84] | 20 to 100 nM
42 | Cc1ccc2[nH]ncc2c1-c1cc(C(C)C)c2nc(Nc3cn(C)nc3C)ncc2c1 [III-89] | ≤ 20 nM
43 | Cc1nccnc1-c1cc(C(C)C)c2nc(Nc3cnn(C)c3C)ncc2c1 [III-100] | ≤ 20 nM
44 | Cc1cccnc1-c1cc(C(C)C)c2nc(Nc3cn(C)nc3C)ncc2c1 [III-119] | ≤ 20 nM
45 | Cc1nn(C)cc1Nc1ncc2cc(-c3cccnc3C(F)F)cc(C(C)C)c2n1 [III-123] | ≤ 20 nM
46 | Cc1ccncc1-c1cc(C(C)C)c2nc(Nc3cn(C4CCN(C)CC4)nc3C)ncc2c1 [III-129] | ≤ 20 nM
47 | Cc1ccc(C#N)cc1-c1cc(C(C)C)c2nc(Nc3cn(C4CCN(C)CC4)nc3C)ncc2c1 [III-131] | ≤ 20 nM

Other lines, results leading:

Row | IC50 | Structure (SMILES)
48 | ≤ 20 nM | Cc1nn(CCO)cc1Nc1ncc2cc(-c3ccccn3)cc(C(C)C)c2n1 [I-1]
49 | ≤ 20 nM | Cc1nn(CCO)cc1Nc1ncc2cc(-c3ncccc3F)cc(C(C)C)c2n1 [I-2]
50 | ≤ 20 nM | Cc1cccnc1-c1cc(C(C)C)c2nc(Nc3cn(CCO)nc3C)ncc2c1 [I-3]
51 | ≤ 20 nM | COc1cccnc1-c1cc(C(C)C)c2nc(Nc3cn(CCO)nc3C)ncc2c1 [I-4]
52 | ≤ 20 nM | Cc1nn(CCO)cc1Nc1ncc2cc(-c3ccccn3)cc(C(F)(F)F)c2n1 [I-9]
53 | ≤ 20 nM | Cc1c[nH]c(=O)cc1-c1cc(C(C)C)c2nc(Nc3cnn(C)c3C)ncc2c1 [III-3]
54 | ≤ 20 nM | Cc1c[nH]c(=O)cc1-c1cc(C(C)C)c2nc(Nc3cn(C)nc3Cl)ncc2c1 [III-5]
55 | ≤ 20 nM | Cc1c[nH]c(=O)cc1-c1cc(C(C)C)c2nc(Nc3cn(C(F)F)nc3C)ncc2c1 [III-7]
56 | ≤ 20 nM | Cc1c[nH]c(=O)cc1-c1cc(C(C)C)c2nc(Nc3cnn(C(F)F)c3C)ncc2c1 [III-8]
57 | ≤ 20 nM | [2H]C([2H])([2H])n1ncc(Nc2ncc3cc(-c4cc(=O)[nH]cc4C)cc(C(C)C)c3n2)c1C [III-10]
58 | ≤ 20 nM | Cc1c[nH]c(=O)cc1-c1cc(C(C)C)c2nc(Nc3c[nH]nc3C)ncc2c1 [III-11]
59 | ≤ 20 nM | CCn1cc(Nc2ncc3cc(-c4cc(=O)[nH]cc4C)cc(C(C)C)c3n2)c(C)n1 [III-12]
60 | ≤ 20 nM | Cc1c[nH]c(=O)cc1-c1cc(C(C)C)c2nc(Nc3cn(C4CCN(C)CC4)nc3C)ncc2c1 [III-13]
61 | ≤ 20 nM | Cc1c[nH]c(=O)cc1-c1cc(C(C)C)c2nc(Nc3cn(C4CCN(C(C)C)CC4)nc3C)ncc2c1 [III-16]
62 | ≤ 20 nM | Cc1c[nH]c(=O)cc1-c1cc(C(C)C)c2nc(Nc3cnn(C4CCN(C(C)C)CC4)c3C)ncc2c1 [III-17]
63 | ≤ 20 nM | Cc1c[nH]c(=O)cc1-c1cc(C(C)C)c2nc(Nc3cnn([C@@H]4C[C@H]5CC[C@@H](C4)N5C)c3C)ncc2c1 [III-26]
64 | ≤ 20 nM | Cc1c[nH]c(=O)cc1-c1cc(C(C)C)c2nc(Nc3cn(C4CCN(C)CC4)nc3C(F)(F)F)ncc2c1 [III-27]
65 | ≤ 20 nM | Cc1c[nH]c(=O)cc1-c1cc(C(C)C)c2nc(Nc3cnn(C4CCN(C)CC4)c3C(F)(F)F)ncc2c1 [III-28]
66 | ≤ 20 nM | CCc1nn(C2CCN(C)CC2)cc1Nc1ncc2cc(-c3cc(=O)[nH]cc3C)cc(C(C)C)c2n1 [III-29]
67 | ≤ 20 nM | CCc1c(Nc2ncc3cc(-c4cc(=O)[nH]cc4C)cc(C(C)C)c3n2)cnn1C1CCN(C)CC1 [III-30]
68 | ≤ 20 nM | COc1nn(C2CCN(C)CC2)cc1Nc1ncc2cc(-c3cc(=O)[nH]cc3C)cc(C(C)C)c2n1 [III-31]
69 | ≤ 20 nM | COc1nn(C2CCN(C(C)C)CC2)cc1Nc1ncc2cc(-c3cc(=O)[nH]cc3C)cc(C(C)C)c2n1 [III-32]

What follows are molecules tested on WT-BaF3 cells (assay: Cell antiproliferative activity assay (CCK-8), WT-BaF3 (broad-spectrum cytotoxicity)). Details: 72 h; WT-BaF3 cells (IL-3 supplemented), CCK-8, 3 days incubation.
Type: cell-based
Experimental: as §1, §2

Row | Structure (SMILES) | IC50
70 | Cc1nn(CCO)cc1Nc1ncc2cc(-c3ccccn3)cc(C(C)C)c2n1 [I-1] | 500 to 2500 nM
71 | Cc1nn(CCO)cc1Nc1ncc2cc(-c3ncccc3F)cc(C(C)C)c2n1 [I-2] | > 2500 nM
72 | Cc1cccnc1-c1cc(C(C)C)c2nc(Nc3cn(CCO)nc3C)ncc2c1 [I-3] | > 2500 nM
73 | COc1cccnc1-c1cc(C(C)C)c2nc(Nc3cn(CCO)nc3C)ncc2c1 [I-4] | > 2500 nM
74 | Cc1nn(CCO)cc1Nc1ncc2cc(-c3ccccn3)cc(C(F)(F)F)c2n1 [I-9] | > 2500 nM
